The target in assay [1] is T1, neurokinin-1 (NK-1) receptor (Homo sapiens, UniProt P25103).
T1 construct: a human glioblastoma-astrocytoma cell line that endogenously expresses the neurokinin-1 (NK-1) receptor; endogenous in cells; host or cells: U373 human glioblastoma-astrocytoma cells (membranes)
In words: NK-1 binding, [125I] Substance P competition, U373 cell membranes. The settings on record: for IC50: U373 membranes, Bolton Hunter [125I] Substance P displacement; for activity for NK-1: summary statement referring to Table 1. As to the method:
U373 cells, a human glioblastoma-astrocytoma cell line that endogenously expresses the neurokinin-1 (NK-1) receptor, were grown in a monolayer culture at 37° C. in 5% CO2 and fed with Minimum Essential Medium (MEM) supplemented with 10% fetal bovine serum. Membranes were prepared as follows: Cells were washed twice with ice-cold phosphate-buffered saline (pH 7.4) and then incubated for 5 to 10 minutes with ice-cold 10 mM Tris buffer (pH 7.4) containing 5 mM EDTA. Cells were removed from plates, homogenized, and centrifuged at 32,000×g for 20 minutes. The resulting supernatant was discarded, and the pellet resuspended by homogenization in 50 mM Tris buffer (pH 7.4) containing 1 mM EDTA and centrifuged at 32,000×g for 20 minutes. The resulting supernatant was discarded, and the pellet resuspended by homogenization in NK-1 binding assay buffer (50 mM Tris-HCL (pH 7.4), 3 mM MnCl2, 200 μg/ml BSA, 5 μg/ml chymostatin, 40 μg/ml bacitracin and 4 μg/ml leupeptin).
On the day of an experiment the membrane preparation was thawed, homogenized and diluted with NK-1 binding assay buffer to the appropriate concentration. Competition binding assays were performed in 96 well plate format by incubating membranes (5–10 ug/well) with Bolton Hunter labeled [^125I] Substance P, at a concentration of […], and concentrations of drugs ranging from 10000 to 0.01 nM. Samples were incubated for 30 min at 20° C. then filtered through GF/B glass fiber filters (pretreated with 1% polyethyleneimine and 0.3% Triton X-100) using a Brandel cell harvester. The filters were then washed with 10 ml ice cold 50 mM Tris-HCL (pH 7.4) containing 3 mM MgCl2. Non-specific was defined in the presence of 2 μM L-733,060 (a non-peptide NK-1 antagonist). Amount of radioligand bound in the presence and absence of competitor was analyzed by plotting (−)log drug concentration versus the amount of radioligand specifically bound. The midpoint of the displacement curve (IC50, nM), signifies the potency. Ki values were calculated using the method of Cheng and Prusoff [Cheng, Y.-C. and Prusoff, W. H., Biochemical Pharmacology, Vol. 22, pp. 3099–3108, Pergamon Press (1973)].

Assay [2] concerns the target T2, human serotonin transporters (Homo sapiens, UniProt P31645).
T2 construct: expressed in transfected cells; host or cells: HEK-293 cells stably expressing hSERT (G418 selection), membranes
In words: Serotonin transporter binding assay, [3H]-citalopram, HEK-hSERT membranes. As to conditions: for IC50: HEK-hSERT membranes, 1 nM [3H]-citalopram displacement, read-out: SERT IC50; for activity for SERT: summary statement referring to Table 1. As for the experimental part:
Serotonin Transporter Binding Assay
HEK-293 cells that stably express human serotonin transporters (HEK-hSERT cells) were grown at 37° C. in 5% CO2 as a monolayer in medium consisting of EMEM supplemented with 10% fetal bovine serum and G418 sulfate (500 μg/ml). To prepare membranes for radioligand binding experiments, cells were rinsed twice with phosphate-buffered saline (138 mM NaCl, 4.1 mM KCl, 5.1 mM Na2PO4, 1.5 mM […], 11.1 mM glucose, pH 7.4). Cells were transferred from plates to polypropylene tubes (16×100 mm), centrifuged at 1,200×g for 5 min and were frozen at −80° C. until assay. Following centrifugation, pellets were resuspended by homogenization in buffer consisting of 50 mM Tris (pH 7.7 at 25° C.), 120 mM NaCl and 5 mM KCl and then centrifuged at 32,000×g for 10 min. Following centrifugation, supernatants were discarded and pellets were resuspended in buffer consisting of 50 mM Tris (pH 7.4 at 25° C.), 150 mM NaCl and 5 mM KCl. Membrane homogenates (200 μl/plate) were incubated with 1 nM [^3H]-citalopram (specific activity=85 Ci/mmol) and increasing concentrations of test compounds for 1 hr at 25° C. in a total volume of 250 μl. The assay buffer consisted of 50 mM Tris (pH 7.4 at 25° C.), 120 mM NaCl and 5 mM KCl (pH 7.4 with conc. HCl). Plates were incubated for 1 hr at 25° C., then filtered through 0.5% PEI treated Whatman GF/B filters using a Brandel cell harvester. Filters were washed three times with 3 ml of ice-cold Tris wash buffer. Non-specific binding was defined with 10 μM fluoxetine. Amount of radioligand bound in the presence and absence of competitor was analyzed by plotting (−)log drug concentration versus the amount of radioligand specifically bound. The midpoint of the displacement curve (IC50, nM), signifies the potency. Ki values were calculated using the method of Cheng and Prusoff [Cheng, Y.-C. and Prusoff, W. H., Biochemical Pharmacology, Vol. 22, pp. 3099–3108, Pergamon Press (1973)].

Structures are written as SMILES. Structures can show the parent of a compound that is named as a salt.

T2 sequence (P31645 whole entry): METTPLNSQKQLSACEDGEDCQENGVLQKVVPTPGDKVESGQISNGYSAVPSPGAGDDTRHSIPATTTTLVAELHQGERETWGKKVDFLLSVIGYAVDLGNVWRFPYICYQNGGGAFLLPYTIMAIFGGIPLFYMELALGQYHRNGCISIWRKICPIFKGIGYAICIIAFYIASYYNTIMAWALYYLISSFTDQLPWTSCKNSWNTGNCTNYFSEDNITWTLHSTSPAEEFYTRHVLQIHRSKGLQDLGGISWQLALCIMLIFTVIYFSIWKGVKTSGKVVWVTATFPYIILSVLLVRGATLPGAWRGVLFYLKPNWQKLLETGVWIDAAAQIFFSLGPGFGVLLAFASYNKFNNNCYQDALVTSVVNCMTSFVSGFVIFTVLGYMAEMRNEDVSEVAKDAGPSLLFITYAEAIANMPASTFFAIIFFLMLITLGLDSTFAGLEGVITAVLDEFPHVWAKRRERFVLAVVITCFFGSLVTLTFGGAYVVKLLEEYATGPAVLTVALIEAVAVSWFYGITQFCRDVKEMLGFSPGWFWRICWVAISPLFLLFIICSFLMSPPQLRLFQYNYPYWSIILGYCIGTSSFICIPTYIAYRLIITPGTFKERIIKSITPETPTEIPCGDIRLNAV
T1 sequence (P25103 whole entry): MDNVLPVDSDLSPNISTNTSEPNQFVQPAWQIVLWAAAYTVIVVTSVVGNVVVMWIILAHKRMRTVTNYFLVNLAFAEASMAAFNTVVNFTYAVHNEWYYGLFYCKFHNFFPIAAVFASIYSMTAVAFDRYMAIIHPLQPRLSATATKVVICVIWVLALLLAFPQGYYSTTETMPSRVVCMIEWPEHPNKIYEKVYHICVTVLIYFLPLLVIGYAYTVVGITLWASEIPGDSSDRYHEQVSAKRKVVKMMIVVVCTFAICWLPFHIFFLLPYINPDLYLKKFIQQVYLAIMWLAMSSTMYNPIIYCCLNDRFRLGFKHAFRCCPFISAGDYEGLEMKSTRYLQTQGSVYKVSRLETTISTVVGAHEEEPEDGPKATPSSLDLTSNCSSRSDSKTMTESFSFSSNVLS

For `FC(F)(F)c1cc(COC[C@@H]2CNC[C@H]2c2ccccc2)cc(C(F)(F)F)c1` (relative stereo) [Example 1, Trans-3-((3,5-bis(trifluoromethyl)benzyloxy)methyl)-4-phenylpyrrolidine hydrochloride], the IC50 in assay [1] fell in the range of 20 to 100 nM. As to `Fc1cc(F)cc(COC[C@@H]2CNC[C@H]2c2ccccc2)c1` (relative stereo) [Example 4, Trans-3-((3,5-difluorobenzyloxy)methyl)-4-phenylpyrrolidine], the IC50 in assay [2] was 20 to 100 nM.

Take `FC(F)(F)c1ccccc1COC[C@@H]1CNC[C@H]1c1ccccc1` (relative stereo) [Example 5, Trans-3-((2-trifluorobenzyloxy)-methyl)-4-phenylpyrrolidine]: the IC50 in assay [2] was in the range of 100 to 300 nM.

Take `FC(F)(F)c1cccc(COC[C@@H]2CNC[C@H]2c2ccccc2)c1` (relative stereo) [Example 6, Trans-3-((3-trifluoromethylbenzyloxy)-methyl)-4-phenylpyrrolidine]: the IC50 in assay [2] was in the range of 20 to 100 nM.

Consider `FC(F)(F)c1cc(COC[C@@H]2CNC[C@H]2c2c[nH]c3ccccc23)cc(C(F)(F)F)c1` (relative stereo) [Example 8, Trans-3-(4-((3,5-bis(trifluoromethyl)benzy-loxy)methyl)pyrrolidin-3-yl)-1H-indole], for which the IC50 in assay [1] fell in the range of 100 to 300 nM. For the molecule `Cc1cc(C)cc(OC[C@@H]2CNC[C@H]2c2ccccc2)c1` (relative stereo) [Example 11, Trans-3-((3,5-dimethylphenoxy)methyl)-4-phenylpyrrolidine hydrochloride], the IC50 in assay [2] lay in the range of 20 to 100 nM. `FC(F)(F)c1cc(OC[C@@H]2CNC[C@H]2c2c[nH]c3ccccc23)cc(C(F)(F)F)c1` (relative stereo) [Example 12, Trans-3-(4-((3,5-bis(trifluoromethyl)phenoxy)methyl)pyrrolidin-3-yl)-1H-indole] had an IC50 in assay [1] of 100 to 300 nM. As to `Cc1cc(C)cc(COCC2CNCC2c2ccccc2)c1` (stereo not drawn) [Example 2, Trans-3-((3,5-dimethylbenzyloxy)-methyl)-4-phenylpyrrolidine], in assay [2], the IC50 was in the range of 20 to 100 nM and the “activity for SERT” value is listed as “have activity”. In addition, in assay [1], the IC50 is 100 to 300 nM and the “activity for NK-1” value is on record as “have activity”. Consider `FC(F)(F)c1cc(OCC2CNCC2c2ccccc2)cc(C(F)(F)F)c1` (stereo not drawn) [Example 10, Trans-3-((3,5-bis(trifluoromethyl)phenoxy)methyl)-4-phenylpyrrolidine trifluoroacetic acid salt], for which, in assay [2], the IC50 lay within 20 to 100 nM and the “activity for SERT” value is on record as “have activity”. Further, in assay [1], the IC50 fell in the range of 100 to 300 nM and the “activity for NK-1” value is “have activity”.

As usually defined, the IC50 is the point on the concentration scale where inhibition reaches its midpoint.

The values are drawn from patent US7138423B2, “Arylpyrrolidine derivatives as NK-1 /SSRI antagonists” (Bristol-Myers Squibb Company, priority 2004, dated 2006).
